The values that follow are results of earlier work, collected in patent US20170056383A1, “TOPICAL HERPES PAIN TREATMENT AND COMPOSITION” (priority 2015, published 2017).

Structures are written as SMILES.

The subject of the data set is Herpes Simplex Virus lesions. As to conditions: applied to the lesion.

On to `CCOC(=O)c1ccc(N)cc1` [benzocaine], for which the active working time result is reported as “about 15 minutes”.
